Laboratory results: PubChem BioAssay (NCI)
Where “and” joins values, the source holds several entries; their conditions need not be identical. Equal entries are not always repeated.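 Step 1: Grow cells in 96-well plates. Step 2: Expose to compound for 48 hours at 5 concentrations. Step 3: Interpolate endpoints linearly; if unreached, use highest concentration. GI50 marks 50% less growth. TGI marks complete inhibition of growth.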

Legend:
Experiment in all cases: DTP human tumour cell line panel, 48 h
A549 NSCLC = test system: A549 NSCLC
COLO 205 colon = test system: COLO 205 colon
HT29 colon = test system: HT29 colon
K-562 leukemia = test system: K-562 leukemia
KM12 colon = test system: KM12 colon
LOX IMVI melanoma = test system: LOX IMVI melanoma
NCI-H23 lung = test system: NCI-H23 lung
OVCAR-3 ovarian = test system: OVCAR-3 ovarian
OVCAR-4 ovarian = test system: OVCAR-4 ovarian
UACC-257 melanoma = test system: UACC-257 melanoma

Compound: NC(=O)NN=C(CS)CS
- TGI (A549 NSCLC): 40.7 µM
- TGI (COLO 205 colon): 46.6 µM
- TGI (HT29 colon): > 100 µM
- TGI (K-562 leukemia): > 100 µM
- TGI (KM12 colon): > 100 µM
- TGI (LOX IMVI melanoma): 40.3 µM
- TGI (NCI-H23 lung): 52.4 µM
- TGI (OVCAR-3 ovarian): 51.3 µM
- TGI (OVCAR-4 ovarian): > 100 µM
- TGI (UACC-257 melanoma): > 70.6 µM

Compound: Cc1sc(Cc2ccccc2)nc1-c1ccc(N)cc1
- TGI (A549 NSCLC): > 100 µM
- TGI (COLO 205 colon): 56.2 µM
- TGI (HT29 colon): 54.8 µM
- TGI (K-562 leukemia): > 100 µM
- TGI (KM12 colon): 46.3 µM
- TGI (LOX IMVI melanoma): 29.8 µM
- TGI (NCI-H23 lung): > 100 µM
- TGI (OVCAR-3 ovarian): 68.8 µM
- TGI (OVCAR-4 ovarian): 51.1 µM
- TGI (UACC-257 melanoma): 84.5 µM

Compound: Cc1c2cc[n+](CCN3CCCCC3)cc2c(C)c2c1[nH]c1ccc(O)cc12
- TGI (A549 NSCLC): 34.7 µM and 27.8 µM
- GI50 (COLO 205 colon): 2.57 µM
- TGI (COLO 205 colon): 27.5 µM and > 24.2 µM
- GI50 (HT29 colon): 4.67 µM
- TGI (HT29 colon): 28 µM and 47.4 µM
- GI50 (K-562 leukemia): 2.33 µM
- TGI (K-562 leukemia): 25.3 µM and 14.8 µM
- GI50 (KM12 colon): 3.14 µM
- TGI (KM12 colon): 27.9 µM and 14.1 µM
- GI50 (LOX IMVI melanoma): 8.69 µM
- TGI (LOX IMVI melanoma): 58.2 µM and 76.2 µM
- GI50 (NCI-H23 lung): 2.6 µM
- TGI (NCI-H23 lung): 53.1 µM and 27.7 µM
- GI50 (OVCAR-3 ovarian): 11.1 µM
- TGI (OVCAR-3 ovarian): 40.2 µM and > 50.3 µM
- GI50 (OVCAR-4 ovarian): 2.98 µM
- TGI (OVCAR-4 ovarian): 7.39 µM and 24.6 µM
- GI50 (UACC-257 melanoma): 28.7 µM
- TGI (UACC-257 melanoma): 29 µM and > 74 µM

Compound: CN(C)c1ccc(/C=N\NC(=O)CSCC(=O)N/N=C/c2ccc(N(C)C)cc2)cc1
- TGI (A549 NSCLC): > 100 µM
- TGI (COLO 205 colon): > 100 µM
- TGI (HT29 colon): > 100 µM
- TGI (K-562 leukemia): > 100 µM
- TGI (KM12 colon): > 100 µM
- TGI (LOX IMVI melanoma): > 100 µM
- TGI (NCI-H23 lung): > 100 µM
- TGI (OVCAR-3 ovarian): > 100 µM
- TGI (OVCAR-4 ovarian): > 100 µM
- TGI (UACC-257 melanoma): > 100 µM

Compound: O=c1ccc2cc(O)c(O)cc2o1
- TGI (A549 NSCLC): > 100 µM
- TGI (COLO 205 colon): > 100 µM
- TGI (HT29 colon): > 100 µM
- TGI (K-562 leukemia): > 100 µM
- TGI (KM12 colon): > 100 µM
- TGI (LOX IMVI melanoma): > 100 µM
- TGI (NCI-H23 lung): > 100 µM
- TGI (OVCAR-3 ovarian): > 100 µM
- TGI (OVCAR-4 ovarian): > 100 µM
- TGI (UACC-257 melanoma): > 100 µM

Compound: CN(C)CCNc1nc(-c2ccc3ccccc3c2)nc2nc[nH]c12
- TGI (A549 NSCLC): 26.3 µM
- TGI (COLO 205 colon): 21.7 µM
- TGI (HT29 colon): 16.4 µM
- TGI (K-562 leukemia): > 100 µM
- TGI (KM12 colon): 19.3 µM
- TGI (LOX IMVI melanoma): 18.8 µM
- TGI (NCI-H23 lung): 23.9 µM
- TGI (OVCAR-3 ovarian): 21 µM
- TGI (OVCAR-4 ovarian): 23.8 µM
- TGI (UACC-257 melanoma): 19.5 µM

Compound: C[C@@H]1CC[C@H]2C(COCCOCC3=C(C(F)(F)F)O[C@@H]4O[C@@]5(C)CC[C@H]6[C@H](C)CC[C@@H]3[C@@]46OO5)=C(C(F)(F)F)O[C@@H]3O[C@@]4(C)CC[C@@H]1[C@]32OO4
- GI50 (A549 NSCLC): < 0.0332 µM
- TGI (A549 NSCLC): > 100 µM
- GI50 (COLO 205 colon): 0.0188 µM
- TGI (COLO 205 colon): 1.64 µM
- GI50 (HT29 colon): < 0.0138 µM
- TGI (HT29 colon): > 100 µM
- GI50 (K-562 leukemia): < 0.0241 µM
- TGI (K-562 leukemia): > 100 µM
- GI50 (KM12 colon): 0.0305 µM
- TGI (KM12 colon): > 6.15 µM
- GI50 (LOX IMVI melanoma): 0.0641 µM
- GI50 (NCI-H23 lung): 0.535 µM
- TGI (NCI-H23 lung): > 100 µM
- GI50 (OVCAR-3 ovarian): 0.134 µM
- TGI (OVCAR-3 ovarian): > 8.24 µM
- GI50 (OVCAR-4 ovarian): > 100 µM
- TGI (OVCAR-4 ovarian): > 100 µM
- GI50 (UACC-257 melanoma): 0.407 µM
- TGI (UACC-257 melanoma): > 100 µM

Compound: NC(N)=N/N=C/c1c(-c2ccccc2)nc2n1ccc1nc(-c3ccccc3)c(/C=N/N=C(N)N)n12
- TGI (A549 NSCLC): > 100 µM
- TGI (COLO 205 colon): > 100 µM
- TGI (HT29 colon): > 100 µM
- TGI (K-562 leukemia): > 100 µM
- TGI (KM12 colon): > 100 µM
- TGI (LOX IMVI melanoma): > 100 µM
- TGI (NCI-H23 lung): > 100 µM
- TGI (OVCAR-3 ovarian): > 100 µM
- TGI (OVCAR-4 ovarian): > 100 µM
- TGI (UACC-257 melanoma): 81.8 µM

Compound: CC1=NN(c2ccccc2)C(=O)/C1=C/c1ccc(O)cc1
- TGI (A549 NSCLC): > 100 µM
- TGI (COLO 205 colon): > 100 µM
- TGI (HT29 colon): > 100 µM
- TGI (K-562 leukemia): > 100 µM
- TGI (KM12 colon): > 100 µM
- TGI (LOX IMVI melanoma): > 100 µM
- TGI (NCI-H23 lung): > 100 µM
- TGI (OVCAR-3 ovarian): > 100 µM
- TGI (OVCAR-4 ovarian): > 100 µM
- TGI (UACC-257 melanoma): > 100 µM

Compound: CC1=C2C(=O)c3ccccc3C(=O)[C@H]2[C@H]2CCO[C@H]2O1
- TGI (A549 NSCLC): > 100 µM
- TGI (COLO 205 colon): > 100 µM
- TGI (HT29 colon): 95.2 µM
- TGI (K-562 leukemia): 74.5 µM
- TGI (KM12 colon): 58.1 µM
- TGI (LOX IMVI melanoma): 58.4 µM
- TGI (NCI-H23 lung): 45.6 µM
- TGI (OVCAR-3 ovarian): 36.5 µM
- TGI (OVCAR-4 ovarian): 37.4 µM
- TGI (UACC-257 melanoma): 36.5 µM

Compound: C/C=C/[P+](c1ccccc1)(c1ccccc1)c1ccccc1
- TGI (A549 NSCLC): > 100 µM
- TGI (COLO 205 colon): 0.285 µM
- TGI (HT29 colon): 12.9 µM
- TGI (K-562 leukemia): 28.2 µM
- TGI (KM12 colon): 7.7 µM
- TGI (LOX IMVI melanoma): 7.26 µM
- TGI (NCI-H23 lung): 14.3 µM
- TGI (OVCAR-3 ovarian): 7.94 µM
- TGI (OVCAR-4 ovarian): 25.4 µM
- TGI (UACC-257 melanoma): 11.2 µM

Compound: Cc1ccc(Oc2ccc(C)cc2[N+](=O)[O-])cc1
- TGI (A549 NSCLC): > 100 µM
- TGI (COLO 205 colon): > 100 µM
- TGI (HT29 colon): > 100 µM
- TGI (K-562 leukemia): > 100 µM
- TGI (KM12 colon): > 100 µM
- TGI (LOX IMVI melanoma): > 100 µM
- TGI (NCI-H23 lung): > 100 µM
- TGI (OVCAR-3 ovarian): > 100 µM
- TGI (OVCAR-4 ovarian): > 100 µM
- TGI (UACC-257 melanoma): > 100 µM
